# In US9586956B2, “Isoquinoline and naphthyridine derivatives” (Genentech, Inc., priority 2012, dated 2017):
# Biological target: T1, purified human MAP4K4 kinase domain (Homo sapiens, UniProt O95819)
# T1 construct: purified human MAP4K4 kinase domain
# Assay: MAP4K4 Inhibition Assay Protocol No. 1 (Caliper LabChip, moesin-derived peptide phosphorylation)
# Format: biochemical
# Conditions: Assay 1; 1 nM enzyme, 10 uM ATP, 45 min
# Protocol: The kinase activity of purified human MAP4K4 kinase domain was measured by monitoring the phosphorylation of a peptide substrate derived from moesin protein (Leu-Gly-Arg-Asp-Lys-Tyr-Lys-Thr-Leu-Arg-Gln-Ile-Arg-Gln) fluorescently labeled on the N-terminus with 5-carboxyfluorescein using the Caliper LabChip technology (Caliper Life Sciences, Hopkinton, Mass.). To determine inhibition constants (IC50), compounds were serially diluted in DMSO and added to 10 uL kinase reactions containing 1 nM purified MAP4K4 enzyme, 1 uM peptide substrate, 10 uM ATP, 10 mM MgCl2, 1 mM EGTA, 50 mM Hepes pH 7.2, 1 mM DTT, 0.01% Triton X-100, and 2% DMSO. Reactions were incubated at room temperature in Perkin Elmer Proxiplates for 45 minutes and stopped by the addition of 10 uL of an EDTA-containing solution (50 mM Hepes pH 7.2, 40 mM EDTA, 0.02% Triton X-100). The fraction of phosphorylated peptide was determined as a fraction of total peptide substrate using the Caliper Lab Chip 3000 according to the manufacturer's instructions. IC50 values were determined using the four-parameter non-linear fit model.
# T1 sequence (O95819 25-289 limits assumed): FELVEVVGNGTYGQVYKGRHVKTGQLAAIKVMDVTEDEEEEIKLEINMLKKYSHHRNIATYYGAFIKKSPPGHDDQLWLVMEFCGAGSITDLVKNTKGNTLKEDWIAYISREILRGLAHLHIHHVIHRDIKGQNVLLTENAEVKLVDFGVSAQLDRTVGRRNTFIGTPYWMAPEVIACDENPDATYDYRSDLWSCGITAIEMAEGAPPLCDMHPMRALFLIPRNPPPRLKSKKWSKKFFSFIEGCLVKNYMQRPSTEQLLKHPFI
row,IC50 [µM],Compound
1,0.0565,1-amino-7-(3-fluorophenyl)- N-(4-hydroxycyclohexyl) isoquinoline-4-carboxamide [Example 113]
2,1.4,"1-amino-N-[2-(3,5-dimethyl- pyrazol-1-yl)ethyl]-7- (3-fluorophenyl) isoquinoline-4-carboxamide [Example 79]"
3,0.122,"CN(C)C(=O)c1nc(CNC(=O)c2cnc(N)c3cc(-c4cccc(F)c4)ccc23)no1 [Example 1, 3-[[[1-amino-7-(3-fluorophenyl)isoquinoline-4-carbonyl]amino]methyl]-N,N-dimethyl-1,2,4-oxadiazole-5-carboxamide]"
4,0.299,"Nc1ncc(-c2nc3ccccc3[nH]2)c2ccc(-c3cccc(F)c3)cc12 [Example 2, 4-(1H-benzimidazol-2-yl)-7-(3-fluorophenyl)isoquinolin-1-amine]"
5,0.0388,"Nc1ncc(C(=O)NC2CC(O)C2)c2ccc(-c3cccc(F)c3)cc12 (stereo not shown) [Example 3, 1-amino-7-(3-fluorophenyl)-N-(3-hydroxycyclobutyl)isoquinoline-4-carboxamide]"
6,0.0221,"N#Cc1cnc(N)c2cc(-c3cccc(F)c3)ccc12 [Example 4, 1-amino-7-(3-fluorophenyl)isoquinoline-4-carbonitrile]"
7,1.2,"NCc1cnc(N)c2cc(-c3cccc(F)c3)ccc12 [Example 5, 4-(aminomethyl)-7-(3-fluorophenyl)isoquinolin-1-amine]"
8,0.0506,"CC(=O)N1CC(NC(=O)c2cnc(N)c3cc(-c4cccc(F)c4)ccc23)C1 [Example 9, N-(1-acetylazetidin-3-yl)-1-amino-7-(3-fluorophenyl)isoquinoline-4-carboxamide]"
9,0.00129,"Nc1ncc(C(=O)NC2CC2)c2ccc(-c3cccc(F)c3)nc12 [Example 13, 8-amino-N-cyclopropyl-2-(3-fluorophenyl)-1,7-naphthyridine-5-carboxamide]"
10,0.0841,"Nc1ncc(C(=O)NCCN2CCOCC2)c2ccc(-c3cccc(F)c3)cc12 [Example 45, 1-amino-7-(3-fluorophenyl)-N-(2-morpholinoethyl) isoquinoline-4-carboxamide]"
11,2.4,"CN(C)CCNC(=O)c1cnc(N)c2cc(-c3cccc(F)c3)ccc12 [Example 46, 1-amino-N-[2-(dimethylamino)ethyl]-7-(3-fluorophenyl) isoquinoline-4-carboxamide]"
12,1.6,"Nc1ncc(C(=O)NCCN2CCCC2)c2ccc(-c3cccc(F)c3)cc12 [Example 47, 1-amino-7-(3-fluorophenyl)-N-(2-pyrrolidin-1-ylethyl)isoquinoline-4-carboxamide]"
13,4.2,"CS(=O)(=O)N1CCN(C(=O)c2cnc(N)c3cc(-c4cccc(F)c4)ccc23)CC1 [Example 48, [1-amino-7-(3-fluorophenyl)-4-isoquinolyl]-(4-methylsulfonylpiperazin-1-yl)methanone]"
14,2.6,"CC(=O)N1CCN(C(=O)c2cnc(N)c3cc(-c4cccc(F)c4)ccc23)CC1 [Example 49, 1-[4-[1-amino-7-(3-fluorophenyl)isoquinoline-4-carbonyl]piperazin-1-yl] ethanone]"
15,1.5,"NC(=O)C1CCN(C(=O)c2cnc(N)c3cc(-c4cccc(F)c4)ccc23)CC1 [Example 50, 1-[1-amino-7-(3-fluorophenyl)isoquinoline-4-carbonyl] piperidine-4-carboxamide]"
16,2,"NC(=O)C1CCCN(C(=O)c2cnc(N)c3cc(-c4cccc(F)c4)ccc23)C1 (stereo not shown) [Example 51, 1-[1-amino-7-(3-fluorophenyl)isoquinoline-4-carbonyl] piperidine-3-carboxamide]"

row,IC50 [µM],Compound
1,1.5,"CN(C)C(=O)CN1CCN(C(=O)c2cnc(N)c3cc(-c4cccc(F)c4)ccc23)CC1 [Example 52, 2-[4-[1-amino-7-(3-fluorophenyl)isoquinoline-4-carbonyl]piperazin-1-yl]-N,N-dimethyl-acetamide]"
2,0.388,"Nc1ncc(C(=O)NCCS(=O)(=O)N2CCCC2)c2ccc(-c3cccc(F)c3)cc12 [Example 53, 1-amino-7-(3-fluorophenyl)-N-(2-pyrrolidin-1-ylsulfonylethyl) isoquinoline-4-carboxamide]"
3,0.0175,"COCc1ccc(NC(=O)c2cnc(N)c3cc(-c4cccc(F)c4)ccc23)cc1 [Example 54, 1-amino-7-(3-fluorophenyl)-N-[4-(methoxymethyl)phenyl]isoquinoline-4-carboxamide]"
4,0.622,"Nc1ncc(C(=O)N2CCC(CO)CC2)c2ccc(-c3cccc(F)c3)cc12 [Example 55, [1-amino-7-(3-fluorophenyl)-4-isoquinolyl]-[4-(hydroxy-methyl)-1-piperidyl] methanone]"
5,0.249,"Nc1ncc(C(=O)NCC2CCOCC2)c2ccc(-c3cccc(F)c3)cc12 [Example 56, 1-amino-7-(3-fluorophenyl)-N-(tetrahydropyran-4-ylmethyl)isoquinoline-4-carboxamide]"
6,0.102,"CC(=O)N1CCC(NC(=O)c2cnc(N)c3cc(-c4cccc(F)c4)ccc23)CC1 [Example 57, N-(1-acetyl-4-piperidyl)-1-amino-7-(3-fluorophenyl) isoquinoline-4-carboxamide]"
7,0.146,"Nc1ncc(C(=O)NCCN2CCCCC2=O)c2ccc(-c3cccc(F)c3)cc12 [Example 58, 1-amino-7-(3-fluorophenyl)-N-[2-(2-oxo-1-piperidyl)ethyl]isoquinoline-4-carboxamide]"
8,0.0999,"Nc1ncc(C(=O)NCC2CCOC2)c2ccc(-c3cccc(F)c3)cc12 (stereo not shown) [Example 59, 1-amino-7-(3-fluorophenyl)-N-(tetrahydrofuran-3-ylmethyl)isoquinoline-4-carboxamide]"
9,0.238,"CNC(=O)C1CN(C(=O)c2cnc(N)c3cc(-c4cccc(F)c4)ccc23)CCO1 (stereo not shown) [Example 60, 4-[1-amino-7-(3-fluorophenyl)isoquinoline-4-carbonyl]-N-methyl-morpholine-2-carboxamide]"
10,0.0368,"NC(=O)c1nc(CNC(=O)c2cnc(N)c3cc(-c4cccc(F)c4)ccc23)no1 [Example 61, 3-[[[1-amino-7-(3-fluorophenyl)isoquinoline-4-carbonyl]amino]methyl]-1,2,4-oxadiazole-5-carboxamide]"
11,0.0338,"Nc1ncc(C(=O)Nc2ccccc2)c2ccc(-c3cccc(F)c3)cc12 [Example 62, 1-amino-7-(3-fluorophenyl)-N-phenyl-isoquinoline-4-carboxamide]"
12,0.0127,"Nc1ncc(C(=O)Nc2ccc(CO)cc2)c2ccc(-c3cccc(F)c3)cc12 [Example 63, 1-amino-7-(3-fluorophenyl)-N-[4-(hydroxymethyl)phenyl]isoquinoline-4-carboxamide]"
13,0.34,"Nc1ncc(C(=O)NCCCN2CCOCC2)c2ccc(-c3cccc(F)c3)cc12 [Example 64, 1-amino-7-(3-fluorophenyl)-N-(3-morpholinopropyl) isoquinoline-4-carboxamide]"
14,1.7,"Nc1ncc(C(=O)N2CCN(CCO)CC2)c2ccc(-c3cccc(F)c3)cc12 [Example 65, [1-amino-7-(3-fluorophenyl)-4-isoquinolyl]-[4-(2-hydroxyethyl)piperazin-1-yl]methanone]"
15,0.0327,"NC(=O)c1cnc(N)c2cc(-c3cccc(F)c3)ccc12 [Example 66, 1-amino-7-(3-fluorophenyl) isoquinoline-4-carboxamide]"
